# From PubChem BioAssay AID1508591
# Settings: rat; liver microsomes; pH 7.4; 15.0 min; 1.0 µM
row,SMILES,half-life
1,O=C(Nc1cn[nH]c1-c1nc2ccc(CN3CCOCC3)cc2[nH]1)NC1CC1,> 30 min
2,CC(C)c1ccccc1-c1ncc(F)c(NCc2ccc(-n3ccnn3)cc2)n1,4.4 min
3,Cc1ccc(N(C)S(=O)(=O)c2ccc(-c3cnc(C4CC4)o3)cc2)cc1,3.6 min
4,CN1CCN(Cc2ccc(-c3ccc(C(C)(C)C#N)cc3)nc2)CC1,24.6 min
5,Cc1ccc(C(=O)Nc2cccc(C(F)(F)F)c2)cc1Nc1nc(-c2cccnc2)nc2c1cnn2C,> 30 min
6,Cn1c(=O)cc(C(=O)NC2CCCc3c2[nH]c2c(Cl)cccc32)c2ccccc21 (configuration not stated),10.1 min
7,N#Cc1cccc(-c2nccc(-n3ccnc3)n2)c1,26 min
8,COc1ccc(C2=Nc3ccc(Br)cc3C(c3ccccc3)N2CC(=O)NN)cc1 (configuration not stated),8.16 min
9,COc1cccc2nc(-c3cccs3)nc(NN3C(=O)C=C(C)C3=O)c12,4.26 min
10,CCCC1=Nc2cc(C(=O)NC3CCCC3)ccc2Sc2ccc(C)cc21,1.41 min
11,CCC(CC)C(=O)NC[C@@H]1C=C(C)[C@H](Cc2nc3c(C)cccc3[nH]2)C[C@H]1C(C)C,1.12 min
12,COc1ccc(NS(=O)(=O)c2ccc(C)c(C(=O)Nc3ccc4oc(C)nc4c3)c2)cc1,4.3 min
13,Fc1cnc(-c2ccccc2C(F)F)nc1NCc1ccc(-c2ccn[nH]2)cc1,10 min
14,OC(CCN1CCCCC1)c1ccc(-c2ccccc2)cc1 (configuration not stated),4.73 min
15,COc1cc(Cl)cn2c(-c3cccc(NC4CNC4)n3)cnc12,> 30 min
16,Cc1ccc(S(=O)(=O)Nc2cnccc2C(=O)Nc2ccc(C#N)cc2)cc1,7.5 min
17,O=C1NC(=O)C(c2cnc3ccccn23)=C1c1cn2c3c(cccc13)CN(C(=O)N1CCOCC1)CC2,> 30 min
18,Cc1ccc([S+](=O)([O-])n2cc(-c3ccc(-c4ccccc4)cc3)c3ccccc32)cc1,> 30 min
19,Cn1cc2c3c(cccc31)CN(C(=O)c1ccc(F)c(Cl)c1)CC2,1.88 min
20,Fc1cccc(-c2ccc(Nc3nc(-c4ccncc4)nc4ccccc34)cc2F)c1,> 30 min
21,O=[S+]([O-])(Nc1ccccc1)c1ccc(NCc2ccc(Cl)cc2O)cc1,1.8 min
22,CC(C)n1cc(-c2ccc3c(c2)N(C)CC3)c2c(NS(=O)(=O)c3ccn(C)n3)ccnc21,1.07 min
23,COc1cccc(CNc2ccc(S(=O)(=O)Nc3ccccc3)cc2)c1O,6.7 min
24,CC(=O)c1c(C)[nH]c(C(=O)Nc2cccc([S+](=O)([O-])Nc3cccnc3)c2)c1C,17 min

row,SMILES,half-life
1,CC1=C[C@@H](CNCc2cccnc2)[C@H](C(C)C)C[C@H]1Cc1nnc(-c2ccc([N+](=O)[O-])cc2)o1,2.13 min
2,O=C(Nc1cc(Cc2ccccc2)ccn1)c1ccc(-c2cccc([N+](=O)[O-])c2)o1,4.8 min
3,Cc1ccc(S(=O)(=O)Nc2cnccc2C(=O)NCCc2ccccc2)cc1,4.9 min
4,CC(=O)N1CCN(c2ccc(OCc3nn(C)c(C)c3-c3cccc4c(CCCOc5cccc6ccccc56)c(C(=O)O)n(Cc5cccnc5)c34)cc2)CC1,15 min
5,Cc1cccc([C@H]2[C@@H]3C=CC[C@@H](C)[C@@H]3C(=O)N2Cc2ccccc2)c1,1.4 min
6,Cc1cnc(-c2ccccc2C2CC2)nc1NCc1ccc(-c2cccnc2)cc1,6.2 min
7,CCOc1ccc(-c2nnc(SCC(=O)NCc3ccccc3Cl)o2)cc1,3.32 min
8,Cc1ccc(Nc2nc(-c3ccncc3)nc3ccccc23)cc1F,12 min
9,CN(C)CCN1C(=O)c2cccc3cc(N)cc(c23)C1=O,> 30 min
10,CC1CC(C)(C)N(C(=O)CN2C(=O)c3ccccc3C2=O)c2ccccc21 (configuration not stated),1.56 min
11,COc1cccc(C(=O)Nc2ccc([S+](=O)([O-])Nc3nccs3)cc2)c1O,> 30 min
12,CCOC(=O)c1[nH]c(C)c(CCC(=O)N2CCN(c3cc(Cl)ccc3C)CC2)c1C,1.8 min
13,CC(C)c1ccc(Nc2c(-c3ccccn3)nc3ccccn23)cc1,2.1 min
14,O=C1Nc2ccccc2C12CC2c1cc(Cl)c(O)c(Cl)c1 (configuration not stated),9.8 min
15,Oc1ccc(CNc2ccccc2C(F)(F)F)c2cccnc12,4.99 min
16,COc1ccc(NC(C)=O)cc1S(=O)(=O)Nc1ccc(Br)cc1,> 30 min
17,CC(=O)Nc1cc(-c2nc(Nc3ccc(F)c(F)c3)c3ccccc3n2)ccn1,12 min
18,Cc1ccc(-c2cc(C(=O)NC3CCCCC3)c3ccccc3n2)cc1,9.42 min
19,COc1cccc(CNc2ccc(S(=O)(=O)Nc3nc(C)c(C)s3)cc2)c1O,12 min
20,Cc1ccc(-c2csc(Nc3ccc(S(=O)(=O)Nc4nccs4)cc3)n2)cc1C,> 30 min
21,CN(C)CCNC(=O)c1nc2nc(-c3ccccc3)c(-c3cccc(Cl)c3)cc2n1C,> 30 min
22,O=[S+]([O-])(Nc1ccc(C2CCNCC2)cc1)c1ccc(NCc2ccc(Br)cc2O)cc1,> 30 min
23,CC(=O)N1CCC2(CCCN(c3ccc(-c4ccccc4)cc3)C2)CC1,16 min
24,O=C1CCCCc2cc(O)c(O)cc21,> 30 min

row,SMILES,half-life
1,CC(C)C(=O)Nc1cccc(NC(=O)c2cc3ccccc3o2)c1,28 min
2,Cn1nnnc1Sc1ncnc2sccc12,> 30 min
3,CNC(=O)c1cccc(-c2cnc(Nc3cccc(C(F)(F)F)c3)c3c2CCO3)c1,> 30 min
4,COc1cc(OC)c2c(=O)[nH]c(-c3cc(C)c(OCCO)c(C)c3)nc2c1,> 30 min
5,Cc1cc(-c2nnc3n2CCCCC3)c(C)n1-c1ccccc1,3.27 min
6,CC(C)(C)C(=O)C(Oc1ccc(Cl)cc1)n1ccnc1 (configuration not stated),> 30 min
7,Cc1noc(C)c1-c1cc(-c2ccc3c(c2)C(=O)NC3)cn2cncc12,> 30 min
8,COC(=O)C1=COC(C)C2CN3CCc4c([nH]c5cc(OC)c(OC)cc45)C3CC12 (configuration not stated),26.3 min
9,Cn1nnnc1Sc1ncnc2scc(-c3ccc(F)cc3)c12,10.7 min
10,O=C(c1ccc(C(=O)N2CCC(N3CCCC3)CC2)c(Nc2ccccc2)c1)N1CCC(N2CCCC2)CC1,> 30 min
11,COc1cc2c(cc1Oc1cccc(N(C)C)c1)NC(=O)C21CCN(c2cnccn2)CC1,1.77 min
12,COc1cccc(CNc2ccc(S(=O)(=O)Nc3ncc(-c4ccccc4)s3)cc2)c1O,> 30 min
13,CCOc1ccc(CCNC(=O)c2cc3sccc3n2CCN2CCN(C)CC2)cc1OCC,6.2 min
14,COc1ccc(Nc2cc(C)nc(-n3nc(C)cc3C)n2)cc1Cl,17.7 min
15,O=C([C@H](Cc1ccc(O[S+](=O)([O-])c2cccc3cnccc23)cc1)N[S+](=O)([O-])c1cccc2cnccc12)N1CCN(Cc2ccccc2)CC1,16 min
16,CN(C)c1cccc(-c2ncc(F)c(N3CCC(C(N)=O)CC3)n2)c1,2.08 min
17,COC(=O)CSc1nc(-c2ccccc2)cc(-c2ccco2)c1C#N,1 min
18,C=C[C@]1(C)C[C@@H](OC(=O)CSC(C)(C)CNC(=O)[C@H](N)C(C)C)[C@]2(C)[C@H](C)CC[C@]3(CCC(=O)[C@H]32)[C@@H](C)[C@@H]1O,2.06 min
19,O=S(=O)(Nc1cccc(C(F)(F)F)c1)c1ccc(NS(=O)(=O)c2ccc3c(c2)OCCO3)cc1,20 min
20,Fc1cnc(-c2ccccc2C(F)F)nc1NCC1CCN(c2cnccn2)C1 (configuration not stated),2.8 min
21,Cc1cc(F)ccc1-c1nc(NCCN=C(N)NC#N)nc2c1ccc(=O)n2-c1c(F)cccc1F,5.23 min
22,O=[N+]([O-])c1cccc(CSc2nc3ncc(Br)cc3[nH]2)c1,6.6 min
23,COCCOc1cnc2ccn([C@H](C)c3nnc4c(F)cc(-c5cnn(C)c5)cn34)c(=O)c2c1,> 30 min
24,N=c1c2c(ccn1CCc1ccccc1)Oc1ccc3ccccc3c1C2c1ccccc1 (configuration not stated),> 30 min
